Active and inactive are the calls of the source. No cut-off for these calls is given here.
The molecules below were run on Staphylococcus aureus (assay: Inhibition of Staphylococcus aureus ATCC 29213 biofilm formation after 24 hrs by crystal violet reporter assay). Conditions: not given.
Format: functional

SMILES	inhibition (INH)
CCCCCCCCn1c(CC(C)C)cnc1N.Cl	93%
Cl.Nc1ncc(Cc2ccccc2)n1CCCc1ccccc1	98%
CCCCCCCCn1c(CCCCNC(=O)OCc2ccccc2)cnc1N.Cl	91%
CC(C)Cc1cnc(N)n1CCCc1ccccc1.Cl	87%
Cl.Nc1ncc(-c2ccccc2)n1Cc1ccccc1	93%
CCCCCCCCCCn1c(CCCCCC)cnc1N.Cl	73%
CCCCCCc1cnc(N)n1CCCCC.Cl	92%
CCCCCCc1cnc(N)n1CCCc1ccccc1.Cl	98%

These molecules were tested on Escherichia coli (assay: Inhibition of Escherichia coli ATCC 35695 biofilm formation after 24 hrs by crystal violet reporter assay). Conditions: not given.
Format: functional

SMILES	inhibition (INH)
CCCCCCCCn1c(CC(C)C)cnc1N.Cl	88%
Cl.Nc1ncc(Cc2ccccc2)n1CCCc1ccccc1	97%
CCCCCCCCn1c(CCCCNC(=O)OCc2ccccc2)cnc1N.Cl	90%
CC(C)Cc1cnc(N)n1CCCc1ccccc1.Cl	92%
Cl.Nc1ncc(-c2ccccc2)n1Cc1ccccc1	89%
CCCCCCCCCCn1c(CCCCCC)cnc1N.Cl	59%
CCCCCCc1cnc(N)n1CCCCC.Cl	97%
CCCCCCc1cnc(N)n1CCCc1ccccc1.Cl	94%

What follows are molecules tested on Staphylococcus epidermidis (assay: Antimicrobial activity against methicillin-resistant Staphylococcus epidermidis ATCC 51625 after 16 hrs by broth microdilution method). Conditions: ATCC 51625, 16 h.
Format: functional

SMILES	MIC
CCCCCCCCn1c(CC(C)C)cnc1N.Cl	8 µg/mL
CCCCCn1c(Cc2ccccc2)cnc1N.Cl	64 µg/mL
Cl.Nc1ncc(Cc2ccccc2)n1CCCc1ccccc1	16 µg/mL
Cl.Nc1ncc(CCCCNC(=O)OCc2ccccc2)n1Cc1ccccc1	32 µg/mL
CCCCCCCCn1c(CCCCNC(=O)OCc2ccccc2)cnc1N.Cl	16 µg/mL
CC(C)Cc1cnc(N)n1CCCc1ccccc1.Cl	32 µg/mL
Cl.Nc1ncc(-c2ccccc2)n1Cc1ccccc1	8 µg/mL
CCCCCCCCCCn1c(CCCCCC)cnc1N.Cl	1 µg/mL
CCCCCCc1cnc(N)n1CCCCC.Cl	32 µg/mL
CCCCCCc1cnc(N)n1CCCc1ccccc1.Cl	16 µg/mL

The molecules below were run on Escherichia coli (assay: Antimicrobial activity against Escherichia coli ATCC 35695 after 16 hrs by broth microdilution method). Conditions: ATCC 35695, 16 h.
Format: functional

SMILES	MIC
CCCCCCCCn1c(CC(C)C)cnc1N.Cl	2 µg/mL
CCCCCn1c(Cc2ccccc2)cnc1N.Cl	64 µg/mL
Cl.Nc1ncc(Cc2ccccc2)n1CCCc1ccccc1	32 µg/mL
Cl.Nc1ncc(CCCCNC(=O)OCc2ccccc2)n1Cc1ccccc1	64 µg/mL
CCCCCCCCn1c(CCCCNC(=O)OCc2ccccc2)cnc1N.Cl	8 µg/mL
CC(C)Cc1cnc(N)n1CCCc1ccccc1.Cl	16 µg/mL
Cl.Nc1ncc(-c2ccccc2)n1Cc1ccccc1	8 µg/mL
CCCCCCCCCCn1c(CCCCCC)cnc1N.Cl	1 µg/mL
CCCCCCc1cnc(N)n1CCCCC.Cl	32 µg/mL
CCCCCCc1cnc(N)n1CCCc1ccccc1.Cl	8 µg/mL

The molecules below were run on Staphylococcus epidermidis (assay: Antimicrobial activity against Staphylococcus epidermidis ATCC 29886 after 16 hrs by broth microdilution method). Conditions: ATCC 29886, 16 h.
Format: functional

SMILES	MIC
CCCCCCCCn1c(CC(C)C)cnc1N.Cl	2 µg/mL
CCCCCn1c(Cc2ccccc2)cnc1N.Cl	32 µg/mL
Cl.Nc1ncc(Cc2ccccc2)n1CCCc1ccccc1	16 µg/mL
Cl.Nc1ncc(CCCCNC(=O)OCc2ccccc2)n1Cc1ccccc1	32 µg/mL
CCCCCCCCn1c(CCCCNC(=O)OCc2ccccc2)cnc1N.Cl	2 µg/mL
CC(C)Cc1cnc(N)n1CCCc1ccccc1.Cl	4 µg/mL
Cl.Nc1ncc(-c2ccccc2)n1Cc1ccccc1	2 µg/mL
CCCCCCCCCCn1c(CCCCCC)cnc1N.Cl	0.25 µg/mL
CCCCCCc1cnc(N)n1CCCCC.Cl	8 µg/mL
CCCCCCc1cnc(N)n1CCCc1ccccc1.Cl	4 µg/mL

Each molecule was assayed on Staphylococcus aureus (assay: Antimicrobial activity against methicillin-susceptible Staphylococcus aureus ATCC 29213 after 16 hrs by broth microdilution method). Conditions: ATCC 29213, 16 h.
Format: functional

SMILES	MIC
CCCCCCCCn1c(CC(C)C)cnc1N.Cl	16 µg/mL
CCCCCn1c(Cc2ccccc2)cnc1N.Cl	64 µg/mL
Cl.Nc1ncc(Cc2ccccc2)n1CCCc1ccccc1	32 µg/mL
Cl.Nc1ncc(CCCCNC(=O)OCc2ccccc2)n1Cc1ccccc1	32 µg/mL
CCCCCCCCn1c(CCCCNC(=O)OCc2ccccc2)cnc1N.Cl	16 µg/mL
CC(C)Cc1cnc(N)n1CCCc1ccccc1.Cl	64 µg/mL
Cl.Nc1ncc(-c2ccccc2)n1Cc1ccccc1	8 µg/mL
CCCCCCCCCCn1c(CCCCCC)cnc1N.Cl	1 µg/mL
CCCCCCc1cnc(N)n1CCCCC.Cl	32 µg/mL
CCCCCCc1cnc(N)n1CCCc1ccccc1.Cl	8 µg/mL

The molecules below were run on Acinetobacter baumannii (assay: Antimicrobial activity against Acinetobacter baumannii ATCC 19606 after 16 hrs by broth microdilution method). Conditions: ATCC 19606 = CIP 70.34 = JCM 6841, 16 h.
Format: functional

SMILES	MIC
CCCCCCCCn1c(CC(C)C)cnc1N.Cl	16 µg/mL
CCCCCn1c(Cc2ccccc2)cnc1N.Cl	64 µg/mL
Cl.Nc1ncc(Cc2ccccc2)n1CCCc1ccccc1	32 µg/mL
Cl.Nc1ncc(CCCCNC(=O)OCc2ccccc2)n1Cc1ccccc1	64 µg/mL
CCCCCCCCn1c(CCCCNC(=O)OCc2ccccc2)cnc1N.Cl	64 µg/mL
CC(C)Cc1cnc(N)n1CCCc1ccccc1.Cl	32 µg/mL
Cl.Nc1ncc(-c2ccccc2)n1Cc1ccccc1	128 µg/mL
CCCCCCCCCCn1c(CCCCCC)cnc1N.Cl	8 µg/mL
CCCCCCc1cnc(N)n1CCCCC.Cl	64 µg/mL
CCCCCCc1cnc(N)n1CCCc1ccccc1.Cl	16 µg/mL

Each molecule was assayed on Acinetobacter baumannii (assay: Inhibition of Acinetobacter baumannii ATCC 19606 biofilm formation after 24 hrs by crystal violet reporter assay). Conditions: not given.
Format: functional, ATCC 19606 = CIP 70.34 = JCM 6841

SMILES	inhibition (INH)
CCCCCCCCn1c(CC(C)C)cnc1N.Cl	97%
Cl.Nc1ncc(Cc2ccccc2)n1CCCc1ccccc1	96%
CCCCCCCCn1c(CCCCNC(=O)OCc2ccccc2)cnc1N.Cl	93%
CC(C)Cc1cnc(N)n1CCCc1ccccc1.Cl	96%
Cl.Nc1ncc(-c2ccccc2)n1Cc1ccccc1	96%
CCCCCCCCCCn1c(CCCCCC)cnc1N.Cl	91%
CCCCCCc1cnc(N)n1CCCCC.Cl	97%
CCCCCCc1cnc(N)n1CCCc1ccccc1.Cl	96%

Each molecule was assayed on Klebsiella pneumoniae (assay: Antimicrobial activity against carbapenem-resistant Klebsiella pneumoniae BAA-2146 expressing […] gene after 16 hrs by broth microdilution method). Conditions: BAA-2146, 16 h.
Format: functional

SMILES	MIC
CCCCCCCCn1c(CC(C)C)cnc1N.Cl	64 µg/mL
CCCCCn1c(Cc2ccccc2)cnc1N.Cl	128 µg/mL
Cl.Nc1ncc(Cc2ccccc2)n1CCCc1ccccc1	128 µg/mL
Cl.Nc1ncc(CCCCNC(=O)OCc2ccccc2)n1Cc1ccccc1	128 µg/mL
CCCCCCCCn1c(CCCCNC(=O)OCc2ccccc2)cnc1N.Cl	128 µg/mL
CC(C)Cc1cnc(N)n1CCCc1ccccc1.Cl	128 µg/mL
Cl.Nc1ncc(-c2ccccc2)n1Cc1ccccc1	128 µg/mL
CCCCCCCCCCn1c(CCCCCC)cnc1N.Cl	32 µg/mL
CCCCCCc1cnc(N)n1CCCCC.Cl	64 µg/mL
CCCCCCc1cnc(N)n1CCCc1ccccc1.Cl	64 µg/mL

What follows are molecules tested on Acinetobacter baumannii (assay: Inhibition of Acinetobacter baumannii BAA-1605 biofilm formation after 24 hrs by crystal violet reporter assay). Conditions: not given.
Format: functional

SMILES	inhibition (INH)	inhibition
CCCCCCCCn1c(CC(C)C)cnc1N.Cl	96%	
Cl.Nc1ncc(Cc2ccccc2)n1CCCc1ccccc1	94%	
CCCCCCCCn1c(CCCCNC(=O)OCc2ccccc2)cnc1N.Cl	91%	
CC(C)Cc1cnc(N)n1CCCc1ccccc1.Cl	97%	
Cl.Nc1ncc(-c2ccccc2)n1Cc1ccccc1	97%	
CCCCCCCCCCn1c(CCCCCC)cnc1N.Cl	97%	
CCCCCCc1cnc(N)n1CCCCC.Cl		inactive
CCCCCCc1cnc(N)n1CCCc1ccccc1.Cl	98%	

Each molecule was assayed on Staphylococcus aureus (assay: Antimicrobial activity against methicillin-resistant Staphylococcus aureus BAA-44 after 16 hrs by broth microdilution method). Conditions: BAA-44, 16 h.
Format: functional

SMILES	MIC
CCCCCCCCn1c(CC(C)C)cnc1N.Cl	8 µg/mL
CCCCCn1c(Cc2ccccc2)cnc1N.Cl	128 µg/mL
Cl.Nc1ncc(Cc2ccccc2)n1CCCc1ccccc1	32 µg/mL
Cl.Nc1ncc(CCCCNC(=O)OCc2ccccc2)n1Cc1ccccc1	32 µg/mL
CCCCCCCCn1c(CCCCNC(=O)OCc2ccccc2)cnc1N.Cl	16 µg/mL
CC(C)Cc1cnc(N)n1CCCc1ccccc1.Cl	32 µg/mL
Cl.Nc1ncc(-c2ccccc2)n1Cc1ccccc1	4 µg/mL
CCCCCCCCCCn1c(CCCCCC)cnc1N.Cl	1 µg/mL
CCCCCCc1cnc(N)n1CCCCC.Cl	32 µg/mL
CCCCCCc1cnc(N)n1CCCc1ccccc1.Cl	8 µg/mL

The molecules below were run on Staphylococcus aureus (assay: Inhibition of Staphylococcus aureus BAA-44 biofilm formation after 24 hrs by crystal violet reporter assay). Conditions: not given.
Format: functional

SMILES	inhibition (INH)
CCCCCCCCn1c(CC(C)C)cnc1N.Cl	97%
Cl.Nc1ncc(Cc2ccccc2)n1CCCc1ccccc1	90%
CCCCCCCCn1c(CCCCNC(=O)OCc2ccccc2)cnc1N.Cl	84%
CC(C)Cc1cnc(N)n1CCCc1ccccc1.Cl	96%
Cl.Nc1ncc(-c2ccccc2)n1Cc1ccccc1	95%
CCCCCCCCCCn1c(CCCCCC)cnc1N.Cl	83%
CCCCCCc1cnc(N)n1CCCCC.Cl	98%
CCCCCCc1cnc(N)n1CCCc1ccccc1.Cl	91%

These molecules were tested on Acinetobacter baumannii (assay: Antimicrobial activity against multidrug-resistant Acinetobacter baumannii BAA-1605 after 16 hrs by broth microdilution method). Conditions: BAA-1605, 16 h.
Format: functional

SMILES	MIC
CCCCCCCCn1c(CC(C)C)cnc1N.Cl	16 µg/mL
CCCCCn1c(Cc2ccccc2)cnc1N.Cl	64 µg/mL
Cl.Nc1ncc(Cc2ccccc2)n1CCCc1ccccc1	32 µg/mL
Cl.Nc1ncc(CCCCNC(=O)OCc2ccccc2)n1Cc1ccccc1	64 µg/mL
CCCCCCCCn1c(CCCCNC(=O)OCc2ccccc2)cnc1N.Cl	64 µg/mL
CC(C)Cc1cnc(N)n1CCCc1ccccc1.Cl	32 µg/mL
Cl.Nc1ncc(-c2ccccc2)n1Cc1ccccc1	16 µg/mL
CCCCCCCCCCn1c(CCCCCC)cnc1N.Cl	8 µg/mL
CCCCCCc1cnc(N)n1CCCCC.Cl	64 µg/mL
CCCCCCc1cnc(N)n1CCCc1ccccc1.Cl	32 µg/mL
